The subject of one data set is TNF-α production. Kind of data set: Inhibition of TNF-α production following LPS-stimulation of human PBMC and human whole blood, in vitro. The data set is classed as cell-based. The following applies: in vitro studies; compared with thalidomide. On the procedure:
In a specific embodiment, the pharmacological properties of 3-(3,4-dimethoxy-phenyl)-3-(1-oxo-1,3-dihydro-isoindol-2-yl)-propionamide are characterized in in vitro studies. Studies examine the effects of the compound on the production of various cytokines. Inhibition of TNF-α production following LPS-stimulation of human PBMC and human whole blood by the compound is investigated in vitro. The IC50's of the compound for inhibiting production of TNF-α are measured. […] The pharmacological effects of 3-(3,4-dimethoxy-phenyl)-3-(1-oxo-1,3-dihydro-isoindol-2-yl)-propionamide may derive from its action as an inhibitor of the generation of inflammatory cytokines.

Data set [1] in a line: Clinical study in pain patients with upper extremity CRPS. The data set is classed as in vivo, human. The following applies: 1,200 mg as a continuous oral daily dose. The method, then: Selective cytokine inhibitory drugs of the invention such as 3-(3,4-dimethoxy-phenyl)-3-(1-oxo-1,3-dihydro-isoindol-2-yl)-propionamide are administered in an amount of 400 to 1,200 mg per day to patients with pain syndromes for three to six months. A baseline evaluation is performed for the effect of the drug treatment on pain intensity, impact of pain on activities of daily living, and consumption of other pain medications.
In a specific embodiment, clinical studies are performed in pain patients who have upper extremity CRPS that has not responded to conventional physical therapy and has been present for at least one year. In the early course of their diseases, patients have clear evidence of autonomic dysfunction with formal autonomic testing (Quantitative sudomotor axon reflex test (QSART), resting sweat output, and thermography). If this is unavailable, documentation of clinical signs indicates autonomic dysfunction (changes in hydration, temperature, skin, nail or hair growth) along with symptoms of allodynia and swelling. […] Responses are assessed using standard pain scales, e.g., Numeric Pain Scale Assessment (VAS) for pain, quality of life using the McGill Index and objective signs in clinical examination such as a visible reduction of swelling, sweating, discolorations in skin color, temperature changes, changes in skin, hair and nail growth, and fine motor movements. […]

Data set [2] is described as follows: Cardiovascular and respiratory function in anesthetized dogs. The following applies: anesthetized Beagle dogs; ascending doses 400, 800 and 1,200 mg/kg/day by infusion through the jugular vein; compared to vehicle control group. The data set is classed as in vivo. On the procedure:
The effects of 3-(3,4-dimethoxy-phenyl)-3-(1-oxo-1,3-dihydro-isoindol-2-yl)-propionamide on cardiovascular and respiratory function are investigated in anesthetized dogs. Two groups of Beagle dogs (2/sex/group) are used. One group receives three doses of vehicle only and the other receives three ascending doses of 3-(3,4-dimethoxy-phenyl)-3-(1-oxo-1,3-dihydro-isoindol-2-yl)-propionamide (400, 800, and 1,200 mg/kg/day). In all cases, doses of 3-(3,4-dimethoxy-phenyl)-3-(1-oxo-1,3-dihydro-isoindol-2-yl)-propionamide or vehicle are successively administered via infusion through the jugular vein separated by intervals of at least 30 minutes.
The cardiovascular and respiratory changes induced by 3-(3,4-dimethoxy-phenyl)-3-(1-oxo-1,3-dihydro-isoindol-2-yl)-propionamide are minimal at all doses when compared to the vehicle control group. 5.3 Studies Using Animal Pain Models

Regarding `COc1ccc(C(CC(N)=O)N2Cc3ccccc3C2=O)cc1OC` (stereo not drawn) [3-(3,4-Dimethoxy-phenyl)-3-(1-oxo-1,3-dihydro-isoindol-2-yl)-propionamide], the “pharmacological activity profile, potency relative to thalidomide” value in the data set on TNF-α production is “five to fifty times more potent than thalidomide”. For the same molecule, the tolerability result in data set [1] is given as “well-tolerated”. The “cardiovascular and respiratory changes” value in data set [2] is “minimal”.

Source of the values: patent US20070161696A1, “Methods of using and compositions comprising selective cytokine inhibitory drugs for treatment, modification and management of pain” (priority 2004, published 2007).
